Results from patent US5965607A, “Substituted Benzo[1,4]dioxines as antiobesity agents” (American Home Products Corporation, priority 1997, dated 1999).

Legend:
[1] = target: human β2 adrenergic receptors (Homo sapiens, UniProt P07550); assay: cAMP elevation in CHO cells transfected with human β2 adrenergic receptor; assay type: cell-based; conditions: 10 min, CHO cells expressing human β2 receptor, compound at 10 nM, 37° C., relative to isoproterenol at 10 μM; for activation at 0.01 µM: read-out: β2, % of isoproterenol activity (increase in cAMP)
Chain of human β2 adrenergic receptors (P07550 whole entry): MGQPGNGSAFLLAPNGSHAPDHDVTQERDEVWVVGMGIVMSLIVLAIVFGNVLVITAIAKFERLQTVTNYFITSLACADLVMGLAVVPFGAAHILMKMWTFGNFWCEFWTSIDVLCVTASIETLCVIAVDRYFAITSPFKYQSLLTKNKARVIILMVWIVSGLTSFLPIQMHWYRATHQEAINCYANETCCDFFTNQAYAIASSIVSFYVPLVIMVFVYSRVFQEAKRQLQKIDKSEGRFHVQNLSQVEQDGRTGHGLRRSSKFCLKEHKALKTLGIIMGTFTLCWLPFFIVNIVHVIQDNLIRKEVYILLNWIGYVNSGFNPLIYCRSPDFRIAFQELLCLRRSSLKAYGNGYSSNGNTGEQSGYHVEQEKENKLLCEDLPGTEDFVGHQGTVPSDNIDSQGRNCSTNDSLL
Description: (§1) The activity of the test compounds on human β-adrenergic receptors was determined with Chinese hamster ovary (CHO) cells transfected with human β3, β2, or β1 adrenergic receptors. The preparation of these cells has been described in Emorine, L. J., Marullo, S., Briend-Sutren, M., Patey, G., Tate, K., Delavier-Klutchko, C., Strosberg, A. D. Molecular Characterization of the Human Beta 3-AdrenergicReceptor Science 1989,245(8), 1118-1121 and in Muzzin, P., Revelli, J.-P., Kuhne, F., Gocayne, J. D., McCombie, W. R., Venter, J. C., Giacobino, J.- P., Fraser, C. M. An Adipose Tissue-Specific Beta 3-Adrenergic Receptor. Molecular Cloning and Down-Regulation in Obesity J. Biol. Chem. 1991, 226, 24053-24058. Agonist activity is indicated by increased cAMP levels in the CHO cells. Selectivity of the test compounds for the β3 receptor was assessed by comparison with results in β2 and β1 adrenergic receptor transfected cells.
(§2) 1). Chinese hamster ovary (CHO) cells transfected with human β3, β2, or β1 adrenergic receptors were used in the assay.
(§3) 2). Cells were grown to confluent conditions in 24 well plates.
(§4) 3). Drugs were dissolved in DMSO at a concentration of 10 μM.
(§5) 4). Cells were incubated with drug at 10 nM concentration for 10 min at 37° C. Isoproterenol (Standard 1) was used as the standard compound and assayed at 10 μM which gives a maximal cAMP elevation in all 3 cell types.
(§6) 5). Cell cAMP concentrations were assayed using a scintillation proximity assay from Amersham Corp (Chicago, Ill.).
(§7) 6). Activities for the test compounds are expressed as a percentage of the isoproterenol response.
(§8) a Human β receptors expressed in Chinese hamster ovary cells, compounds tested at 10 nM, results expressed as % of isoproterenol activity (increase in cAMP) at 10 μM.

[2] = target: human β3 adrenergic receptors (Homo sapiens, UniProt P13945); assay: cAMP elevation in CHO cells transfected with human β3 adrenergic receptor; assay type: cell-based; conditions: 10 min, CHO cells expressing human β3 receptor, compound at 10 nM, 37° C., relative to isoproterenol at 10 μM; for activation at 0.01 µM: read-out: β3, % of isoproterenol activity (increase in cAMP)
Chain of human β3 adrenergic receptors (P13945 whole entry): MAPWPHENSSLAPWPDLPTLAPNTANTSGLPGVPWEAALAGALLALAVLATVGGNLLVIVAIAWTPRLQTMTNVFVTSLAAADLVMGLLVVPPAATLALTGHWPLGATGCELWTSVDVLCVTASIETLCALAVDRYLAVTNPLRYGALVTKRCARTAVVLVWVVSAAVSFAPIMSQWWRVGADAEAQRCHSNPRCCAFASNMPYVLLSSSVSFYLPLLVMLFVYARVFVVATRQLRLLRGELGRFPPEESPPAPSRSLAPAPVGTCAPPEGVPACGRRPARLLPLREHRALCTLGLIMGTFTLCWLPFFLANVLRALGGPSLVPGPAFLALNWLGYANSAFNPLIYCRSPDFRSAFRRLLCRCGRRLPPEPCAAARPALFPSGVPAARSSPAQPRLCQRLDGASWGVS
Description: as §1, §2, §3, §4, §5, §6, §7, §8

plasma free fatty acids = assay: Effects on free fatty acid levels in rats; assay type: in vivo, rat; conditions: for Rat Free Fatty Acid, elevation of plasma free fatty acids as % of Standard 2 response: 0.1 mg/kg via gavage, blood collected 50 min later, relative to Standard 2 at 0.1 mg/kg
Description: Rats respond to a single oral dose of β3 agonist by increasing plasma free fatty acids (FFA) in response to β3 receptor stimulation on the plasma membrane of the fat cell. 5-{2-[2-(3-Chloro-phenyl)-2-hydroxy-ethylamino]-propyl}-benzo[1,3]dioxole- 2,2-dicarboxylic acid diisopropyl ester (Standard 2) was used as a standard compound. All test compounds were dosed at 0.1 mg/kg and compared to the response by Standard 2.
1). Drugs were dissolved in DMSO at 10 mg/mL.
2). Twenty μl of the DMSO-drug solution was added to 10 mL methyl cellulose:Tween-80 (0.5%:0.1%) for a final concentration of 20 μg/mL.
3). Methyl cellulose:tween-80 drug suspension was given via gavage (1 mL/200g body weight; or 0.1 mg/kg) to rats and blood was collected 50 min later.
4). Plasma was analyzed for free fatty acids using a kit supplied by Biochemical Diagnostics Inc. (Brentwood, N.Y.).
5). Drug response was calculated from the formula below. [formula] Effects on Hyperglycemia in Mice
b Elevation of plasma free fatty acids in rats, compounds tested at 0.1 mg/kg, results expressed as % of 5-{2-[2-(3-chloro-phenyl)-2-hydroxy-ethylamino]-propyl}-benzo[1,3]dioxole- 2,2-dicarboxylic acid diisopropyl ester response (78% increase) at 0.1 mg/kg.

activation at 0.01 µM [1]	activation at 0.01 µM [2]	β2, % of isoproterenol activity (increase in cAMP) [1]	β3, % of isoproterenol activity (increase in cAMP) [2]	SMILES	Rat Free Fatty Acid, elevation of plasma free fatty acids as % of Standard 2 response (plasma free fatty acids)	increase of plasma free fatty acids in rats (plasma free fatty acids; 0.1 mg/kg, response of the standard itself)
38%	97%	–	–	CCCCCCCCOC(=O)C1Oc2ccc(C[C@@H](C)NC[C@H](O)c3cccc(Cl)c3)cc2OC1C(=O)OCCCCCCCC (stereo partly drawn) [Example 11, (2,3-cis)-6-{(2R)-2-[(2R)-2-(3-Chloro-phenyl)-2-hydroxy-ethylamino]-propyl}-2,3-dihydro-benzo[1,4]dioxine-2,3-dicarboxylic acid dioctyl ester]	5%	–
–	–	–	–	CCOC(=O)C1Oc2ccc(C[C@@H](C)NC[C@H](O)c3cccc(Cl)c3)cc2OC1C(=O)OCC (stereo partly drawn) [Example 8, (2,3-cis)-6-{(2R)-2-[(2R)-2-(3-Chloro-phenyl)-2-hydroxy-ethylamino]-propyl}-2,3-dihydro-benzo[1,4]dioxine-2,3-dicarboxylic acid diethyl ester]	19%	–
–	–	33%	40%	CCOCCOC(=O)C1Oc2ccc(C[C@@H](C)NC[C@H](O)c3cccc(Cl)c3)cc2OC1C(=O)OCCOCC (relative stereo) [Example 7, (2,3-cis)-6-{(2R)-2-[(2R)-2-(3-Chloro-phenyl)-2-hydroxy-ethylamino]-propyl}-2,3-dihydro-benzo[1,4]dioxine-2,3-dicarboxylic acid bis-(2-ethoxy-ethyl)ester]	7%	–
11%	27%	–	–	C[C@H](Cc1ccc2c(c1)OC(C(=O)OCc1ccccc1)C(C(=O)OCc1ccccc1)O2)NC[C@H](O)c1cccc(Cl)c1 (stereo partly drawn) [Example 12, (2,3-cis)-6-{(2R)-2-[(2R)-2-(3-Chloro-phenyl)-2-hydroxy-ethylamino]-propyl}-2,3-dihydro-benzo[1,4]dioxine-2,3-dicarboxylic acid dibenzyl ester]	11%	–
–	–	–	–	CC(Cc1ccc2c(c1)OC(C(=O)OC(C)C)(C(=O)OC(C)C)O2)NCC(O)c1cccc(Cl)c1 (centres unmarked) [5-{2-[2-(3-Chloro-phenyl)-2-hydroxy-ethylamino]-propyl}-benzo[1,3]dioxole-2,2-dicarboxylic acid diisopropyl ester, reference compound]	–	78%
16%	51%	–	–	CCCCOC(=O)C1Oc2ccc(C[C@@H](C)NC[C@H](O)c3cccc(Cl)c3)cc2OC1C(=O)OCCCC (some centres unmarked) [Example 6]	0%	–
9%	4%	–	–	CC(C)OC(=O)C1Oc2ccc(C[C@@H](C)NC[C@H](O)c3cccc(Cl)c3)cc2OC1C(=O)OC(C)C (some centres unmarked) [Example 4]	32%	–
1%	3%	–	–	C[C@H](Cc1ccc2c(c1)OC(C(=O)OC1CCCCC1)C(C(=O)OC1CCCCC1)O2)NC[C@H](O)c1cccc(Cl)c1 (stereo partly drawn) [Example 9, (2,3-cis)-6-{(2R)-2-[(2R)-2-(3-Chloro-phenyl)-2-hydroxy-ethylamino]-propyl}-2,3-dihydro-benzo[1,4]dioxine-2,3-dicarboxylic acid dicyclohexyl ester]	3%	–
4%	3%	–	–	C[C@H](Cc1ccc2c(c1)OC(C(=O)OC1CCCC1)C(C(=O)OC1CCCC1)O2)NC[C@H](O)c1cccc(Cl)c1 (stereo partly drawn) [Example 10, (2,3-cis)-6-{(2R)-2-[(2R)-2-(3-Chloro-phenyl)-2-hydroxy-ethylamino]-propyl}-2,3-dihydro-benzo[1,4]dioxine-2,3-dicarboxylic acid dicyclopentyl ester]	20%	–

SMILES	activation at 0.01 µM [1]	activation at 0.01 µM [2]	β2, % of isoproterenol activity (increase in cAMP) [1]	β3, % of isoproterenol activity (increase in cAMP) [2]	Rat Free Fatty Acid, elevation of plasma free fatty acids as % of Standard 2 response (plasma free fatty acids)	increase of plasma free fatty acids in rats (plasma free fatty acids; 0.1 mg/kg, response of the standard itself)
CC(C)OC(=O)C1Oc2cc(C[C@@H](C)NC[C@H](O)c3cccc(Cl)c3)ccc2OC1C(=O)O (stereo partly drawn) [Example 5, (2,3-cis)-6-{(2R)-2-[(2R)-2-(3-Chloro-phenyl)-2-hydroxy-ethylamino]-propyl}-2,3-dihydro-benzo[1,4]dioxine-2,3-dicarboxylic acid 3-isopropyl ester]	11%	50%	–	–	6%	–
